Experimental data published in patent US12060408B2, “Screening assays, modulators and modulation of activation of Receptor for Advanced Glycation End-products (RAGE)” (Monash University, priority 2017, dated 2024).
Entries after “also recorded” stand apart in the source; their conditions may differ.

What was measured:
[1] = test system: primary murine aortic endothelial cells (PMAEC); experiment: Expression of pro-inflammatory markers by real-time RT-PCR in primary murine aortic endothelial cells; format: cell-based, mouse
Description: Primary aortic endothelial cells (PMAEC) were isolated from the aortae of (wild-type) C57bl6 mice and AGER KO mice and cultured in Dulbecco's modified Eagle's medium (DMEM)/F12 endothelial cell growth supplement (ECGS) supplemented media. Chinese Hamster Ovary (CHO) cells were cultured using F12 media (10% FCS with 2 mM glutamine). Human microvascular endothelial cells (HMEC) were cultured in MCDB 131 medium (10% FCS with 10 mM glutamine, EGF and hydrocortisone).
(§1) Cellular Expression of Pro-Inflammatory Markers and Mediators by Quantitative Real-Time PCR
(§2) After 2 hours of exposure to Ang II (1 μM) or the RAGE ligand, S100A8/A9 (5 ng/ml) cells were placed in Trizol, mRNA extracted and cDNA synthesized. Changes in the gene expression of the NFκB subunit, p65 (RelA) or NFκB-activated target genes (e.g ICAM-1, VCAM-1) were estimated by quantitative real-time RT-PCR, performed using the TaqMan system based on real-time detection of accumulated fluorescence (ABI Prism 7700, Perkin-Elmer Inc, PE Biosystems, Foster City, CA, USA). Gene expression was normalized to 18S mRNA and reported as fold change compared to the level of expression in untreated control mice/cells, which were given an arbitrary value of 1.
Selective Silencing of Gene Expression Using siRNA
PMAEC from C57b/6 mice were also transfected with siRNA to RAGE (2 nM) Ambion, ID:s62119), p65 (RelA) (10 nM; Ambion, ID:s72857), MyD88 (10 nM; Ambion. ID:s201719), PKCζ (10 nM; Ambion, ID:s71716), IQGAP-1, Ambion, ID:s78119), Diaph1 (10 nM; sense5′-[…], antisense 3′-[…]; Invitrogen) or scrambled control #1 (2 nM or 10 nM; Ambion) using Lipofectamine RNAiMAX (Invitrogen) as per manufacturer's instructions. Cells were allowed to recover in media containing 10% FBS for 16 hours prior to treatment with 1 μM Ang II or 5 ng/ml of the RAGE ligand, S100A8/A9, as a signalling control.

[2] = test system: RAGE ligand-independent activation of RAGE by activated AT1R; experiment: Ang II-induced NFκB activation (p65 gene expression, SEAP reporter) in AT1R-CHO cells with RAGE constructs; format: cell-based, human
Description: Generation of Transgenic Chinese Hamster Ovary Cells
100 ng of AT1R-Rluc8 construct was transfected into CHO cells using Lipofectamine 2000 (Thermo). Stable transfectants were selected using G418. AT1R—CHO were then transiently transfected with RAGE constructs using Lipofectamine 2000 (Invitrogen) and incubated for 16 h. The Homo sapiens AGER transcript variant 1 coding sequence (NM_001136) was synthesised and cloned between the NheI and XbaI sites of pCIneo (Promega) to generate the vector pCIneo-RAGE. This plasmid was then used to generate a library of mutant AGER clones (NP_001127). Primers 1-RAGE-SP-5′ and mCherry-XhoI-NotI-3′ were used to amplify the coding sequence of mCherry from the vector pmCherry-C1. The resultant PCR product was then used as template for a second PCR using primers 2-RAGE-SP-5′ and mCherry-XhoI-NotI-3′. The PCR product generated was digested with NheI and NotI and inserted between the NheI and NotI sites of pCIneo to generate pCIneo-SP-mCherry. The sequence of the insert was confirmed by DNA sequencing (Micromon, Monash University). […]
as §1, §2
Oligopeptides (Cherry-TAT (control), mCherry-TAT-RAGE362-404 and mCherry-S391A-TAT-RAGE362-404 were generated by transformation of the Escherichia coli strain ClearColi BL21 (DE3; Lucigen). A single transformed colony was inoculated into 50 ml 2YT medium containing 100 μg/ml ampicillin and the culture was grown overnight at 37° C. with shaking at 250 rev/min. 10 ml overnight culture was used to inoculate 1 litre 2YT medium containing 100 μg/ml ampicillin and the culture was grown at 37° C. with shaking at 250 rev/min. When the cultures reached an OD600 of 0.8, the temperature was shifted to 15° C. for 30 min after which protein expression was induced by the addition of 1 mM isopropyl β-D-1-thiogalacto-pyranoside (IPTG). Following the addition of IPTG the cultures were grown for ˜16 h at 15° C. with shaking at 250 rev/min. Cells were harvested by centrifugation (3500 g, 4° C., 20 min) and resuspended in ice-cold lysis buffer (50 mM Tris pH 7.4, 300 mM NaCl, 10 mM imidazole and 5 mM beta-mercaptoethanol). The resuspended cells were sonicated and insoluble material was pelleted by centrifugation (13 000 g, 4° C., 30 min). The supernatant was filtered (0.2 μm) and applied onto a gravity-flow column with a 1 ml Ni-NTA Agarose resin bed volume (Qiagen) pre-equilibrated with lysis buffer. After the supernatant was passed over the resin, the column was washed with 100 ml of wash buffer (20 mM imidazole, 50 mM Tris pH 7.4, 150 mM NaCl, 5 mM beta-mercaptoethanol). His-tagged TAT-mCherry and TAT-mCherry-RAGE peptides were eluted from the resin using elution buffer (250 mM imidazole, 50 mM Tris pH 7.4, 150 mM NaCl, 5 mM beta-mercaptoethanol). […]

[3] = test system: apoE KO mice; experiment: Aortic expression of pro-inflammatory mediators by quantitative real-time PCR (aortic homogenates); format: in vivo, mouse; details: four-week infusion 1 μg/kg/min
Description: Aortic Expression of Pro-Inflammatory Mediators by Quantitative Real-Time PCR
At the end of each study period, thoracic and abdominal aortae were placed in TRIZOL, snap frozen and stored at −80° C. RNA extraction and cDNA synthesis was performed in aortic homogenates using the Trizol method. Gene expression of pro-atherogenic mediators including adhesion molecules, cytokines, inflammatory, oxidative stress and macrophage markers, were estimated in aortic homogenates by quantitative real-time RT-PCR, performed using the TaqMan system based on real-time detection of accumulated fluorescence (ABI Prism 7700, Perkin-Elmer Inc, PE Biosystems, Foster City, CA, USA). Gene expression was normalized to 18S mRNA and reported as fold change compared to the level of expression in untreated control mice/cells, which were given an arbitrary value of 1.

Substance	inhibition of VCAM-1 induction in response to Ang II or S100A8/A9 ([1]; PMAEC endogenously replete in RAGE)	inhibition of Ang II-dependent p65 induction after pre-treatment with wild-type RAGE362-404 peptide ([2]; AT1R-CHO cells)	inhibition of Ang II-dependent p65 induction with subsequent wild-type RAGE362-404 in thousand-fold excess ([2]; AT1R-CHO cells)	inhibition of Ang II-induced p65 and PCNA gene expression in the absence of targets for RAGE phosphorylation ([2]; AT1R-CHO cells transfected with full length S391Q-cRAGE)	ability of the RAGE construct to be activated and mediate pro-inflammatory signalling in response to Ang II ([2]; construct expressed in AT1R-CHO cells, no wild-type RAGE)	inhibition of RAGE ligand-independent activation of wild-type RAGE by activated AT1R ([2]; summary statement, cell system not given)	aortic expression of pro-atherogenic mediators ([3]; AGER/apoE DKO mice)	aortic expression of genes coding for pro-atherogenic mediators ([3]; apoE KO mice)	induction of pro-inflammatory genes ([1]; PMAEC from AGER KO mice)	markers of canonical or non-canonical activation of NFκB ([1]; PMAEC from AGER KO mice)	canonical and non-canonical signalling downstream of NFκB (CXCL2, CXCL12) ([1]; PMAEC from C57bl6 mice)	expression of pro-inflammatory genes (ICAM-1, VCAM-1, TNFα, MCP-1) ([1]; PMAEC from C57bl6 mice, Ang II 1 μM or S100A8/A9)	NFκB-dependent induction of VCAM-1 gene expression ([1]; PMAEC with AGER expression silenced using siRNA)	activation of p65-NFκB ([2]; AT1R-CHO cells expressing full-length human RAGE, 1 μM)	expression of p65-NFκB / NFκB activation ([2]; AT1R-CHO cells without RAGE, 1 μM)
L362WQRRQRRGEERKAPENQEEEEERAELNQAEEPEAGESSTGGP404 (LWQRRQRRGEERKAPENQEEEEERAELNQAEEPEAGESSTGGP; listed as Homo sapiens) [S391A-RAGE362-404, S391A mutant RAGE cytosolic tail; non-functional substitute for RAGE]	inhibitory effect	not reversed	observed	maintained; also recorded: inhibitory effects	not activated	inhibits									
angiotensin II (DRVYIHPF) [Ang II, cognate ligand of AT1R]							preventing	increases	does not lead to the induction	does not lead to	induction of both canonical and non-canonical signalling	increased expression	preventing	able to induce activation	unable to induce
